We go through 1 molecule from patent US11261189B2, “Substituted 2,4 diamino-quinoline as new medicament for fibrosis, autophagy and cathepsins B (CTSB), L (CTSL) and D (CTSD) related diseases” (Genoscience Pharma, priority 2018, dated 2022).

The subject of the assay is autophagy flux (LC3-II) in Huh7 cell line. Description: Autophagy flux, LC3-II immunoblot with/without Bafilomycin, Huh7 cell line. In kind it is cell-based. To be noted: 4 hours and 24 hours of treatment. Here is the method: Since compound 2-3 induced an inhibition of the proteolytic activity of cathepsins B, D and/or L (see example 1) supporting an inhibition of some lysosomal functions which can affect the cellular autophagy flux, the capacity of compound 2-3 to modulate the cellular autophagy processes and functions was evaluated in two Hepatocellular carcinoma (HCC) cell lines: Huh7 and HepG2. For this purpose, the accumulation of LC3-II (Light Chain 3 phosphatidylethanolamine conjugate) in presence or absence of compound 2-3 was analyzed using immunoblot analysis of LC3-II.
The HepG2 cell line was maintained in DMEM low glucose (Cat #21885025, ThermoFischer) containing 1% penicillin-streptomycin (Cat #P06-07100, Dutscher) and 10% FBS (Cat #SV30160.03C, Dutscher). The Huh7 cell line was maintained in DMEM high glucose (Cat #L0103-500, Dutscher) containing 1% penicillin-streptomycin (Cat #P06-07100, Dutscher) and 10% SVF (Cat #SV30160.03C, Dutscher). Cells lines were cultured at 37° C. with 5% CO2.
The day before the experiment, 6-well plates with 250,000 cells for HepG2 and 310,000 cells for Huh7 in 1.8 mL of medium per well were prepared. […]
After 4 hours and 24 hours of cells treatment, the medium was removed from each well. […] Total protein concentration was assessed using the BCA reagent (Cat #23227, ThermoFischer) and cellular lysates were stored at −80° C. until western-blot analysis. […]
(In general: A western blot detects proteins with antibodies after separation by electrophoresis.)

Entries after “also recorded” stand apart in the source; their conditions may differ. Where a name gives a salt, the structure may show the parent alone.

In the case of `CC(C)(C)NC1CCN(c2cc(NCc3ccc(Cl)cc3)nc3ccccc23)CC1` [2-3, 2-(4-chlorobenzylamino)-4-(4-tert-butylaminopiperidin-1-yl)-quinoline Hydrochloride Salt], the “accumulation of the LC3-II form” value is “significantly induced, in a dose-dependent manner, an accumulation of the LC3-II form”. Also, the “autophagy flux (LC3-II Baf+/Baf− ratio)” value (Hydrochloride Salt) is recorded as “inhibition; also recorded: inhibitor of the autophagy flux”.
